{"source": "paper PMC12141164", "about": "“Phase-1 study of vamotinib (PF-114), a 3rd generation BCR::ABL1 tyrosine kinase-inhibitor, in chronic myeloid leukaemia” (Annals of Hematology, 2025)", "origin": "cited, not measured here", "key": {"EPHA6": {"tested_on": "EPHA6", "settings": "kinase inhibition profiles; cited from earlier work"}, "TAK1": {"tested_on": "TAK1", "settings": "kinase inhibition profiles; cited from earlier work"}, "PDGFRa": {"tested_on": "PDGFRa", "settings": "kinase inhibition profiles; cited from earlier work"}, "dogs": {"tested_on": "dogs", "parameters": "method as in PMID 25394714", "settings": "pre-clinical toxicology; cited from earlier work"}, "rats": {"tested_on": "rats", "parameters": "method as in PMID 25394714", "settings": "pre-clinical toxicology; cited from earlier work"}, "EPHA7": {"tested_on": "EPHA7", "settings": "kinase inhibition profiles; cited from earlier work"}, "VEGFR2": {"tested_on": "VEGFR2", "settings": "kinase inhibition profiles; cited from earlier work"}}}
{"smiles": "Cc1ccc(C(=O)Nc2ccc(CN3CCN(C)CC3)c(C(F)(F)F)c2)cc1C#Cc1nnc2ccccn12", "note": "[vamotinib]", "values": [{"measurement": "inhibition of EPHA6", "setting": "EPHA6", "value": "not"}, {"measurement": "inhibition of TAK1", "setting": "TAK1", "value": "not"}, {"measurement": "inhibition of PDGFRa", "setting": "PDGFRa", "value": "potently inhibited"}, {"measurement": "Rash", "setting": "dogs", "value": "Rash was seen"}, {"measurement": "Rash", "setting": "rats", "value": "Rash was seen"}, {"measurement": "inhibition of EPHA7", "setting": "EPHA7", "value": "not"}, {"measurement": "inhibition of VEGFR2", "setting": "VEGFR2", "value": "not"}]}
